Laboratory results from paper PMC9154192 (PLoS Biology, 2022).
Read-outs that look alike come from different tables or passages of the source.

Format: in vivo, SD rats
Procedure: A subchronic toxicity study was performed for PP2S. Female and male rats were divided into a control group (0 mg/kg/day, n = 15), a low-dose group (167 mg/kg/day, n = 10), a medium-dose group (500 mg/kg/day, n = 10), and a high-dose group (1,500 mg/kg/day, n = 15), respectively. Thus, there were a total of 8 groups. The drug was administered by oral gavage at 10 mL/kg body weight daily for 4 weeks. Five animals each in the control and high-dose groups continued their treatments for 2 more weeks. Clinical symptoms were observed, and body weight was measured during the test period for a total of 6 weeks; 0.5% methyl cellulose 1,500 cP (Sigma, USA) in water for injection (JW Pharmaceutical, Korea) was used as a vehicle. Control animals were treated with only the same volume of the vehicle.
Histopathological examination was performed while performing a 4-week repeated oral toxicity study for PP2S. Organs and tissues from all animals subjected to autopsy were removed and fixed in 10% neutral buffered formalin. Among them, testes, eyeballs and optic nerve were fixed in Davidson's fixative and then in 10% neutral buffered formalin. For organs/tissues subjected to histopathological examination, specimens were prepared according to the histopathological specimen preparation SOP. For histopathological examination, organs and tissues of all subjects in the control group and the high-dose group, and macroscopically observed subjects in the low-dose group were examined. […] In addition, all other changes observed in histopathological examination were judged to be spontaneous or accidental. Those not specifically observed for all groups by organ were marked with a 'dash' symbol. Grade 1, minimal; Grade 2, slight; Grade 3, moderate; Grade 4, severe.

[1] = female, G4 1,500 mg/kg, recovery period, n=5
[2] = male, G2 167 mg/kg, dosing period, n=10
[3] = male, G3 500 mg/kg, dosing period, n=10
[4] = male, G4 1,500 mg/kg, dosing period, n=10
[5] = male, G4 1,500 mg/kg, recovery period, n=5

For CCCCOc1ccc2cc(CN3C(=O)CC[C@H]3C(=O)OC)c3cc(OC)c(OC)cc3c2c1 [PP2S, Methyl (S)-1-((3-butoxy-6,7-dimethoxyphenanthren-9-yl)methyl)-5-oxopyrrolidine-2-carboxylate], the “Kidney: Mineralization, medulla, Grade 1, no. of animals” value [1] was 0, the “Liver: Extramedullary hematopoiesis, Grade 1, no. of animals” value [1] was 0 and the “Liver: Fatty change, sporadic/periportal, Grade 1, no. of animals” value [1] was 2. The “Liver: Fatty change, sporadic/periportal, Grade 2, no. of animals” value [1] was 0, the “Liver: Infiltrate, mononuclear cell, focal, Grade 1, no. of animals” value (shortened to “Liver: Infiltrate … Grade 1, no. of animals”) [1] was 4 and the “Liver: Infiltrate, mononuclear cell, focal, Grade 2, no. of animals” value (shortened to “Liver: Infiltrate … Grade 2, no. of animals”) [1] was 0. The “Lung including bronchi: Alveolar macrophage aggregation, focal, Grade 1, no. of animals” value [1] was 0, the “Lung including bronchi: Infiltrate, mononuclear cell, alveolar, focal, Grade 1, no. of animals” value [1] was 1 and the “Pituitary gland: Cyst, pars nervosa, Presence, no. of animals” value (shortened to “Pituitary gland: Cyst … no. of animals”) [1] was 0. The “Prostate: Infiltrate, inflammatory cell, interstitium, Grade 1, no. of animals” value (from here on “Prostate: Infiltrate … no. of animals”) [1] was 0, the “Salivary gland (parotid): Focus, hypertrophic, basophilic, focal, Grade 1, no. of animals” value (“Salivary gland (parotid): Focus … no. of animals” below) [1] was 0 and the “Spleen: Pigmentation, Grade 1, no. of animals” value (from here on “Spleen … no. of animals”) [1] was 5. For the same compound, the “Submandibular lymph node: Increased, plasma cell, Grade 2, no. of animals” value [1] was 0, the “Thyroid gland: Ectopic thymus, Presence, no. of animals” value [1] was 1 and the “Thyroid gland: Ultimobranchial cyst, Presence, no. of animals” value [1] was 2. For the same compound, the “Adrenal gland: Vacuolation, cortical, diffuse, Grade 1, no. of animals” value (from here on “Adrenal gland … Grade 1, no. of animals”) [2] was 0, the “Adrenal gland: Vacuolation, cortical, diffuse, Grade 2, no. of animals” value (from here on “Adrenal gland … Grade 2, no. of animals”) [2] was 0 and the “Epididymis: Infiltrate, inflammatory cell, interstitum, Grade 1, no. of animals” value (from here on “Epididymis: Infiltrate … no. of animals”) [2] was 0. For the same compound, the “Eye: Dysplasia, retina, focal, Grade 1, no. of animals” value (shortened to “Eye: Dysplasia … no. of animals”) [2] was 0, the “Harderian gland: Infiltrate, inflammatory cell, focal, Grade 1, no. of animals” value (shortened to “Harderian gland: Infiltrate … no. of animals”) [2] was 0 and the “Kidney: Basophilia, tubule, cortex, Grade 1, no. of animals” value (shortened to “Kidney: Basophilia … no. of animals”) [2] was 0. For the same compound, the “Kidney: Cast, hyaline, cortex, Grade 1, no. of animals” value (“Kidney: Cast … no. of animals” below) [2] was 0, the “Kidney: Hydronephrosis, unilateral, Grade 3, no. of animals” value (“Kidney: Hydronephrosis … no. of animals” for short) [2] was 0 and the “Kidney: Infiltrate, inflammatory cell, interstitium, Grade 1, no. of animals” value (shortened to “Kidney: Infiltrate … Grade 1, no. of animals”) [2] was 0. The “Kidney: Infiltrate, inflammatory cell, interstitium, Grade 2, no. of animals” value (“Kidney: Infiltrate … Grade 2, no. of animals” for short) [2] was 0, the “Kidney: Mineralization, cortex, Grade 1, no. of animals” value [2] was 0 and the “Kidney: Mineralization, corticomedullary junction, Grade 1, no. of animals” value [2] was 0. For the same compound, the “Kidney: Mineralization, medulla, Grade 1, no. of animals” value [2] was 0, the “Liver: Extramedullary hematopoiesis, Grade 1, no. of animals” value [2] was 0 and the “Liver: Fatty change, sporadic/periportal, Grade 1, no. of animals” value [2] was 0. For the same compound, the “Liver: Fatty change, sporadic/periportal, Grade 2, no. of animals” value [2] was 0, the “Liver: Infiltrate … Grade 1, no. of animals” value [2] was 0 and the “Liver: Infiltrate … Grade 2, no. of animals” value [2] was 0. The “Lung including bronchi: Alveolar macrophage aggregation, focal, Grade 1, no. of animals” value [2] was 0, the “Lung including bronchi: Infiltrate, mononuclear cell, alveolar, focal, Grade 1, no. of animals” value [2] was 0 and the “Pituitary gland: Cyst … no. of animals” value [2] was 0. For the same compound, the “Prostate: Infiltrate … no. of animals” value [2] was 0, the “Salivary gland (parotid): Focus … no. of animals” value [2] was 0 and the “Spleen … no. of animals” value [2] was 0. The “Submandibular lymph node: Increased, plasma cell, Grade 2, no. of animals” value [2] was 1, the “Thyroid gland: Ectopic thymus, Presence, no. of animals” value [2] was 0 and the “Thyroid gland: Ultimobranchial cyst, Presence, no. of animals” value [2] was 0. For the same compound, the “Adrenal gland … Grade 1, no. of animals” value [3] was 0, the “Adrenal gland … Grade 2, no. of animals” value [3] was 0 and the “Epididymis: Infiltrate … no. of animals” value [3] was 0. For the same compound, the “Eye: Dysplasia … no. of animals” value [3] was 0, the “Harderian gland: Infiltrate … no. of animals” value [3] was 0 and the “Kidney: Basophilia … no. of animals” value [3] was 0. The “Kidney: Cast … no. of animals” value [3] was 0, the “Kidney: Hydronephrosis … no. of animals” value [3] was 0 and the “Kidney: Infiltrate … Grade 1, no. of animals” value [3] was 0. The “Kidney: Infiltrate … Grade 2, no. of animals” value [3] was 0, the “Kidney: Mineralization, cortex, Grade 1, no. of animals” value [3] was 0 and the “Kidney: Mineralization, corticomedullary junction, Grade 1, no. of animals” value [3] was 0. The “Kidney: Mineralization, medulla, Grade 1, no. of animals” value [3] was 0, the “Liver: Extramedullary hematopoiesis, Grade 1, no. of animals” value [3] was 0 and the “Liver: Fatty change, sporadic/periportal, Grade 1, no. of animals” value [3] was 0. For the same compound, the “Liver: Fatty change, sporadic/periportal, Grade 2, no. of animals” value [3] was 0, the “Liver: Infiltrate … Grade 1, no. of animals” value [3] was 0 and the “Liver: Infiltrate … Grade 2, no. of animals” value [3] was 0. For the same compound, the “Lung including bronchi: Alveolar macrophage aggregation, focal, Grade 1, no. of animals” value [3] was 0, the “Lung including bronchi: Infiltrate, mononuclear cell, alveolar, focal, Grade 1, no. of animals” value [3] was 0 and the “Pituitary gland: Cyst … no. of animals” value [3] was 0. For the same compound, the “Prostate: Infiltrate … no. of animals” value [3] was 0, the “Salivary gland (parotid): Focus … no. of animals” value [3] was 0 and the “Spleen … no. of animals” value [3] was 0. The “Submandibular lymph node: Increased, plasma cell, Grade 2, no. of animals” value [3] was 0, the “Thyroid gland: Ectopic thymus, Presence, no. of animals” value [3] was 0 and the “Thyroid gland: Ultimobranchial cyst, Presence, no. of animals” value [3] was 0. For the same compound, the “Adrenal gland … Grade 1, no. of animals” value [4] was 3, the “Adrenal gland … Grade 2, no. of animals” value [4] was 1 and the “Epididymis: Infiltrate … no. of animals” value [4] was 1. The “Eye: Dysplasia … no. of animals” value [4] was 0, the “Harderian gland: Infiltrate … no. of animals” value [4] was 1 and the “Kidney: Basophilia … no. of animals” value [4] was 3. For the same compound, the “Kidney: Cast … no. of animals” value [4] was 1, the “Kidney: Hydronephrosis … no. of animals” value [4] was 0 and the “Kidney: Infiltrate … Grade 1, no. of animals” value [4] was 7. For the same compound, the “Kidney: Infiltrate … Grade 2, no. of animals” value [4] was 1, the “Kidney: Mineralization, cortex, Grade 1, no. of animals” value [4] was 0 and the “Kidney: Mineralization, corticomedullary junction, Grade 1, no. of animals” value [4] was 0. For the same compound, the “Kidney: Mineralization, medulla, Grade 1, no. of animals” value [4] was 0, the “Liver: Extramedullary hematopoiesis, Grade 1, no. of animals” value [4] was 1 and the “Liver: Fatty change, sporadic/periportal, Grade 1, no. of animals” value [4] was 4. For the same compound, the “Liver: Fatty change, sporadic/periportal, Grade 2, no. of animals” value [4] was 0, the “Liver: Infiltrate … Grade 1, no. of animals” value [4] was 4 and the “Liver: Infiltrate … Grade 2, no. of animals” value [4] was 0. The “Lung including bronchi: Alveolar macrophage aggregation, focal, Grade 1, no. of animals” value [4] was 0, the “Lung including bronchi: Infiltrate, mononuclear cell, alveolar, focal, Grade 1, no. of animals” value [4] was 2 and the “Pituitary gland: Cyst … no. of animals” value [4] was 1. For the same compound, the “Prostate: Infiltrate … no. of animals” value [4] was 2, the “Salivary gland (parotid): Focus … no. of animals” value [4] was 0 and the “Spleen … no. of animals” value [4] was 0. For the same compound, the “Submandibular lymph node: Increased, plasma cell, Grade 2, no. of animals” value [4] was 0, the “Thyroid gland: Ectopic thymus, Presence, no. of animals” value [4] was 0 and the “Thyroid gland: Ultimobranchial cyst, Presence, no. of animals” value [4] was 2. The “Adrenal gland … Grade 1, no. of animals” value [5] was 3, the “Adrenal gland … Grade 2, no. of animals” value [5] was 0 and the “Epididymis: Infiltrate … no. of animals” value [5] was 0. The “Eye: Dysplasia … no. of animals” value [5] was 0, the “Harderian gland: Infiltrate … no. of animals” value [5] was 0 and the “Kidney: Basophilia … no. of animals” value [5] was 1. The “Kidney: Cast … no. of animals” value [5] was 3, the “Kidney: Hydronephrosis … no. of animals” value [5] was 0 and the “Kidney: Infiltrate … Grade 1, no. of animals” value [5] was 0. The “Kidney: Infiltrate … Grade 2, no. of animals” value [5] was 0, the “Kidney: Mineralization, cortex, Grade 1, no. of animals” value [5] was 0 and the “Kidney: Mineralization, corticomedullary junction, Grade 1, no. of animals” value [5] was 0. For the same compound, the “Kidney: Mineralization, medulla, Grade 1, no. of animals” value [5] was 0, the “Liver: Extramedullary hematopoiesis, Grade 1, no. of animals” value [5] was 1 and the “Liver: Fatty change, sporadic/periportal, Grade 1, no. of animals” value [5] was 2. The “Liver: Fatty change, sporadic/periportal, Grade 2, no. of animals” value [5] was 0, the “Liver: Infiltrate … Grade 1, no. of animals” value [5] was 3 and the “Liver: Infiltrate … Grade 2, no. of animals” value [5] was 0. The “Lung including bronchi: Alveolar macrophage aggregation, focal, Grade 1, no. of animals” value [5] was 0, the “Lung including bronchi: Infiltrate, mononuclear cell, alveolar, focal, Grade 1, no. of animals” value [5] was 0 and the “Pituitary gland: Cyst … no. of animals” value [5] was 0. For the same compound, the “Prostate: Infiltrate … no. of animals” value [5] was 1, the “Salivary gland (parotid): Focus … no. of animals” value [5] was 0 and the “Spleen … no. of animals” value [5] was 3. For the same compound, the “Submandibular lymph node: Increased, plasma cell, Grade 2, no. of animals” value [5] was 0, the “Thyroid gland: Ectopic thymus, Presence, no. of animals” value [5] was 0 and the “Thyroid gland: Ultimobranchial cyst, Presence, no. of animals” value [5] was 1.
